Read-outs that look alike come from different tables or passages of the source.
Molecular target: T1, recombinant human 5-HT4 receptor (Homo sapiens, UniProt Q13639)
T1 construct: expressed in transfected cells
Assay: Determination of EC50 values for 5-HT4 receptor (CHO cells, pCRE-Luc reporter)
Type: cell-based
Conditions: for EC50: 4 hours incubation
Method: Determination of EC50 Values for 5-HT4 Receptor
A stable CHO cell line expressing recombinant human 5-HT4 receptor and pCRE-Luc reporter system was used for cell-based assay. The assay offers a non-radioactive based approach to determine binding of a compound to GPCRs. In this specific assay, the level of intracellular cyclic AMP, which is modulated by activation, or inhibition of the receptor is measured. The recombinant cells harbor luciferase reporter gene under the control of cAMP response element.
The above cells were grown in 96 well clear bottom white plates in Hams F12 medium containing 10% fetal bovine serum (FBS). Prior to the addition of compounds or standard agonist, cells were serum starved overnight. Increasing concentrations of test compounds were added in OptiMEM medium to the cells. The incubation was continued at 37° C. in CO2 incubator for 4 hours. Medium was removed and cells were washed with phosphate buffered saline. The cells were lysed and luciferase activity was measured in a Luminometer. Luminescence units were plotted against the compound concentrations using Graphpad software.

[1] = CHO cells, human 5-HT4 receptor, luciferase reporter
[2] = CHO, CHO cells, human 5-HT4 receptor, luciferase reporter, read-out: Emax

T1 sequence (Q13639 whole entry): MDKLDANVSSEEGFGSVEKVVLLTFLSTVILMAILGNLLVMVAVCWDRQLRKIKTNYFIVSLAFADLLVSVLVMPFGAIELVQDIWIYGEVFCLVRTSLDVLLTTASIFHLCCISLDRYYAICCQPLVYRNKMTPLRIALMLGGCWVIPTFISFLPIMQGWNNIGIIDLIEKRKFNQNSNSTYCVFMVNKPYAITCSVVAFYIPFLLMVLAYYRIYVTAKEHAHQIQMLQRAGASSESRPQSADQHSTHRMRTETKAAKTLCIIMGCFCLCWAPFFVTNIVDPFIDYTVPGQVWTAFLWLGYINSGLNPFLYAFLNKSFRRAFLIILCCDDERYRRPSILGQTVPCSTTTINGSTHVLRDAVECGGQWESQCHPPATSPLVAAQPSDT

Emax [2] [%]	Compound	Emax [1] [%]	EC50 [1] [nM]	Emax (CHO) [%]
	5-Amino-6-chloro-N-{[3-(2-fluoro-2-methyl propyl)-3-azabicyclo[3.1.0]hex-6-yl]methyl} quinoline-8-carboxamide [Example 47]	79	1.6	
54	Nc1c(Cl)cc(C(=O)NCC2[C@H]3CN(CC4CCOCC4)C[C@@H]23)c2ncccc12 (mixture of isomers) [Example 15, 5-Amino-6-chloro-N-{[3-(tetrahydro-2H-pyran-4-ylmethyl)-3-azabicyclo[3.1.0]hex-6-yl]methyl}quinoline-8-carboxamide (exo/endo mixture)]		0.5	
79	Nc1c(Cl)cc(C(=O)NC2CCN(CC3CCOCC3)CC2)c2ncccc12 [Example 3, 5-Amino-6-chloro-N-[1-(tetrahydro-2H-pyran-4-ylmethyl)-4-piperidinyl]quinoline-8-carboxamide]		2.5	
	Nc1c(Cl)cc(C(=O)NCC2CCN(C3CCOCC3)CC2)c2ncccc12 [Example 6, 5-Amino-6-chloro-N-{[1-(tetrahydro-2H-pyran-4-yl)-4-piperidinyl]methyl}quinoline-8-carboxamide L(+)-tartarate]		0.1	56
71	Nc1c(Cl)cc(C(=O)NCC2C3CN(CC4CCOC4)CC23)c2ncccc12 (centres unmarked) [Example 7, 5-Amino-6-chloro-N-{[3-(tetrahydro-3-furanylmethyl)-3-azabicyclo[3.1.0]hex-6-yl]methyl}quinoline-8-carboxamide]		0.57	
	CC(C)CN1CC2C(CNC(=O)c3cc(Cl)c(N)c4cccnc34)C2C1 (stereo not drawn) [Example 8, 5-Amino-6-chloro-N-{[3-isobutyl-3-azabicyclo[3.1.0]hex-6-yl]methyl}quinoline-8-carboxamide L(+)-tartarate]		0.7	87
	Nc1c(Cl)cc(C(=O)NCC2C3CN(CC4CC4)CC23)c2ncccc12 (stereo not drawn) [Example 9, 5-Amino-6-chloro-N-{[3-cyclopropylmethyl-3-azabicyclo[3.1.0]hex-6-yl]methyl} quinoline-8-carboxamide L(+)-tartarate]		0.8	87
	CC(C)N1CC2C(CNC(=O)c3cc(Cl)c(N)c4cccnc34)C2C1 (stereo not drawn) [Example 10, 5-Amino-6-chloro-N-{[3-isopropyl-3-azabicyclo[3.1.0]hex-6-yl]methyl}quinoline-8-carboxamide L(+)-tartarate]		1.5	83
	Nc1c(F)cc(C(=O)NCC2CCN(CC3CCOCC3)CC2)c2ncccc12 [Example 11, 5-Amino-6-fluoro-N-{[1-(tetrahydro-2H-pyran-4-ylmethyl)-4-piperidinyl]methyl} quinoline-8-carboxamide L(+)-tartarate]		0.3	77
	Nc1c(Cl)cc(C(=O)NCC2CCN(CC3CCOCC3)C2)c2ncccc12 (stereo not drawn) [Example 12, 5-Amino-6-chloro-N-{[1-(tetrahydro-2H-pyran-4-ylmethyl)-3-pyrrolidinyl]methyl} quinoline-8-carboxamide L(+)-tartarate]		0.2	83
	Nc1c(Br)cc(C(=O)NCC2CCN(CC3CCOCC3)CC2)c2ncccc12 [Example 16, 5-Amino-6-bromo-N-{[1-(tetrahydro-2H-pyran-4-ylmethyl)-4-piperidinyl]methyl} quinoline-8-carboxamide L(+)-tartarate]		0.08	62
	Nc1c(Br)cc(C(=O)NCC2C3CN(CC4CCOCC4)CC23)c2ncccc12 (stereo not drawn) [Example 17, 5-Amino-6-bromo-N-{[3-(tetrahydro-2H-pyran-4-ylmethyl)-3-azabicyclo[3.1.0]hex-6-yl]methyl}quinoline-8-carboxamide L(+)-tartarate]		0.8	72
	Nc1c(Cl)cc(C(=O)NCC2(F)CCN(CC3CCOCC3)CC2)c2ncccc12 [Example 20, 5-Amino-6-chloro-N-{[4-fluoro-1-(tetrahydro-2H-pyran-4-ylmethyl)-4-piperidinyl]methyl}quinoline-8-carboxamide L(+)-tartarate]		1.1	58
	Nc1c(Cl)cc(C(=O)NCC2(O)CCN(CC3CCOCC3)CC2)c2ncccc12 [Example 22, 5-Amino-6-chloro-N-{[4-hydroxy-1-(tetrahydro-2H-pyran-4-ylmethyl)-4-piperidinyl]methyl}quinoline-8-carboxamide L(+)-tartarate]		0.2	86
81	Nc1c(Cl)cc(C(=O)NC2CCN(CC3(O)CCOCC3)CC2)c2ncccc12 [Example 24, 5-Amino-6-chloro-N-[1-(4-hydroxytetrahydro-2H-pyran-4-ylmethyl)-4-piperidinyl] quinoline-8-carboxamide]		4.1	
	Nc1c(Cl)cc(C(=O)NCC2C3CN(CC4(O)CCOCC4)CC23)c2ncccc12 (stereo not drawn) [Example 25, 5-Amino-6-chloro-N-{[3-(4-hydroxytetrahydro-2H-pyran-4-ylmethyl)-3-azabicyclo[3.1.0]hex-6-yl]methyl}quinoline-8-carboxamideL(+)-tartarate]		0.6	93
	Nc1c(F)cc(C(=O)NCC2CCN(CC3(O)CCOCC3)CC2)c2ncccc12 [Example 28]		0.1	66
	Nc1c(Cl)cc(C(=O)NCC2(O)CCN(CC3(O)CCOCC3)CC2)c2ncccc12 [Example 29, 5-Amino-6-chloro-N-{[4-hydroxy-1-(4-hydroxytetrahydro-2H-pyran-4-ylmethyl)-4-piperidinyl]methyl}quinoline-8-carboxamide L(+)-tartarate]		0.1	84
	Nc1c(Cl)cc(C(=O)NCC2CCN(CC3(F)CCOCC3)CC2)c2ncccc12 [Example 30, 5-Amino-6-chloro-N-{[1-(4-fluorotetrahydro-2-pyran-4-ylmethyl)-4-piperidinyl]methyl}quinoline-8-carboxamide L(+)tartarate]		0.1	65
60	COC(=O)C(C)(C)CN1CCC(CNC(=O)c2cc(Cl)c(N)c3cccnc23)CC1 [Example 31, 5-Amino-6-chloro-N-{[1-(2-methoxycarbonyl-2-methylpropan-1-yl)-4-piperidinyl]methyl}quinoline-8-carboxamide]		0.3	
	CC(C)(CN1CCC(CNC(=O)c2cc(Cl)c(N)c3cccnc23)CC1)C(=O)O [Example 32, 5-Amino-6-chloro-N-{[1-(2,2-dimethylproponic acid-3-yl)-4-piperidinyl]methyl}quinoline-8-carboxamide L(+)-tartarate]		1.2	60
	CC(C)(O)CN1CCC(CNC(=O)c2cc(Cl)c(N)c3cccnc23)CC1 [Example 35, 5-Amino-6-chloro-N-{[1-(2-hydroxy-2-methylpropyl)-4-piperidinyl]methyl}quinoline-8-carboxamide L(+)-tartarate]		0.1	48
	CC(C)(O)CN1CCC(F)(CNC(=O)c2cc(Cl)c(N)c3cccnc23)CC1.Cl [Example 38, 5-Amino-6-chloro-N-{[4-fluoro-1-(2-hydroxy-2-methylpropyl)-4-piperidinyl]methyl} quinoline-8-carboxamide hydrochloride]	54	1.3	
	CC(C)(O)CN1CC2C(CNC(=O)c3cc(Cl)c(N)c4cccnc34)C2C1 (stereo not drawn) [Example 40, 5-Amino-6-chloro-N-{(3-(2-hydroxy-2-methylpropyl)-3-azabicyclo[3.1.0]hex-6-yl]methyl} quinoline-8-carboxamide L(+)-tartarate]		3.9	63
	CC(C)(O)CN1CCC(CNC(=O)c2cc(F)c(N)c3cccnc23)CC1 [Example 41, 5-Amino-6-fluoro-N-{[1-(2-hydroxy-2-methylpropyl)-4-piperidinyl]methyl}quinoline-8-carboxamide L(+)-tartarate]		0.2	64
	CC(C)(O)CN1CCC(CNC(=O)c2cc(Br)c(N)c3cccnc23)CC1 [Example 44, 5-Amino-6-bromo-N-{[1-(2-hydroxy-2-methylpropyl)-4-piperidinyl]methyl} quinoline-8-carboxamide L(+)-tartarate]		0.3	52
	CC(C)(O)CN1CCC(F)(CNC(=O)c2cc(Br)c(N)c3cccnc23)CC1 [Example 45, 5-Amino-6-bromo-N-{[4-fluoro-1-(2-hydroxy-2-methylpropyl)-4-piperidinyl]methyl} quinoline-8-carboxamide L(+)-tartarate]		11.8	89

Compound	Emax [2] [%]	Emax [1] [%]	EC50 [1] [nM]	Emax (CHO) [%]
Nc1c(Cl)cc(C(=O)NCC2CCN(CC3(O)CCOCC3)CC2)c2ncccc12 [Example 26, 5-Amino-6-chloro-N-{[1-(4-hydroxytetrahydro-2H-pyran-4-ylmethyl)-4-piperidinyl]methyl}quinoline-8-carboxamide]	65			
CC(C)(O)CN1CCC(F)(CNC(=O)c2cc(Cl)c(N)c3cccnc23)CC1 [Example 36, 5-Amino-6-chloro-N-{[4-fluoro-1-(2-hydroxy-2-methylpropyl)-4-piperidinyl]methyl} quinoline-8-carboxamide]	74		2.3	
CC(C)(O)CN1CCC(F)(CNC(=O)c2cc(F)c(N)c3cccnc23)CC1 [Example 42, 5-Amino-6-fluoro-N-{[4-fluoro-1-(2-hydroxy-2-methylpropyl)-4-piperidinyl]methyl} quinoline-8-carboxamide]	74		4	
